{"source": "paper PMC4938718", "about": "(Structure (London, England : 1993), 2016)", "key": {"[1]": {"molecular_target": "T1, HisF subunit of imidazole glycerol phosphate synthase (IGPS) (Thermotoga maritima, UniProt Q9X0C6)", "T1 sequence (Q9X0C6 1-253)": "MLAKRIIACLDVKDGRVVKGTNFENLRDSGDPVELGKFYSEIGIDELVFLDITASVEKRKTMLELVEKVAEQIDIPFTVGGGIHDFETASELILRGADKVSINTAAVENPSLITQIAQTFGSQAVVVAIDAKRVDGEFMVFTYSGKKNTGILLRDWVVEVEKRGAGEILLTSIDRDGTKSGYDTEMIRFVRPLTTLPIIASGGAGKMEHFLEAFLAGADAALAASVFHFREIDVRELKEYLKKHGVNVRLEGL", "T1 sequence (Q9X0C8 1-201 partner)": "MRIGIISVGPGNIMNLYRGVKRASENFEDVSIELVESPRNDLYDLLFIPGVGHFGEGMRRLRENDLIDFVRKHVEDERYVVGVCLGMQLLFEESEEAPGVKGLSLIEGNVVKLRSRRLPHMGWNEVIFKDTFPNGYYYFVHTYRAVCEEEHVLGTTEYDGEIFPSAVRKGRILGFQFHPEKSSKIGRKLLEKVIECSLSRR", "test": "NMR lineshape analysis of titration", "assay_type": "binding"}, "[2]": {"molecular_target": "T2, HisH subunit of imidazole glycerol phosphate synthase (IGPS) (Thermotoga maritima, UniProt Q9X0C8)", "T2 sequence (Q9X0C8 1-201)": "T1 sequence (Q9X0C8 1-201 partner)", "T2 sequence (Q9X0C6 1-253 partner)": "T1 sequence (Q9X0C6 1-253)", "test": "covalent labeling, loss of free Cys thiol confirmed by DTNB assay", "assay_type": "binding"}}, "data": [{"smiles": "NC(=O)c1ncn([C@@H]2O[C@H](COP(=O)(O)O)[C@@H](O)[C@H]2O)c1N", "note": "[AICAR]", "values": [{"measurement": "Kd", "setting": "[1]", "result": "1.5 ± 0.2", "unit": "mM"}]}, {"smiles": "N[C@H](C(=O)O)[C@@H]1CC(Cl)=NO1", "note": "[acivicin]", "values": [{"measurement": "covalent labeling, loss of free Cys thiol confirmed by DTNB assay", "setting": "[2]", "result": "Covalent modification of IGPS with the non-hydrolyzable Gln analogue acivicin was achieved by incubating IGPS with two molar equivalents"}]}]}
